Ends that are not written are not given here.
Tests used:
Caenorhabditis elegans [1] = type: in vivo; conditions: for effect on lifespan / increase in fecundity (number of offspring): 1 μM in aqueous medium each day; for increase in fecundity (number of offspring): over lifespan
From the text: (For methodology see Davies, K. G & Hart, J. E, Nematology, 10, 103-112, 2008).
The first six amino acids of the micrin peptide fragment of SEQ ID NO: 9 are MKPLTG (SEQ ID NO: 26). These have been synthesized as a 6 mer. […] Thus the fecundity-enhancing effect is retained even if 8 of the 14 amino acids are removed, potentially identifying an active motif. To optimise this 6 mer further, amino acid substitutions have been made, while retaining the proline at position 3.

[2] = system: human bone marrow stem cells; experiment: Human bone marrow stem cell proliferation in vitro; type: cell-based; conditions: 1 μM in the medium, 24 h
Protocol: (§1) Micrin activity has been determined by means of a suitable in vitro assay, for example the breast cancer cell viability assay described above in Section 4 with reference to FIG. 4. A useful assay in support of molecular optimisation involves adult rat bone marrow stem cells in culture, with α-MEMS as cell medium and manual assessments of cell numbers and morphology using time-lapse video photography over 24 h. In one study, untreated control cells increased in number by 50%. An increase of just under 20% was also seen with the 14 mer peptide SEQ ID NO: 9, administered at 10 μg/ml of medium.
To investigate the stop growing aspect of the hypothesized micrin puberty signal, the proline-containing 6 mers have been administered to human bone marrow stem cells in an in vitro assay (see 6a), at a concentration in the medium of 1 μM.

human dental pulp cells = experiment: Dental pulp cell proliferation (Cyquant); type: cell-based; conditions: for anti-proliferative activity: 5 μM in the cell medium, seeding 5.0×10^3 cells/ml
[3] = system: adult rat bone marrow stem cells; experiment: Adult rat bone marrow stem cells in culture, cell numbers by time-lapse video over 24 h; type: cell-based
Protocol: Polyclonal antibodies were raised in the same manner using goats instead of rabbits, with Peptide 2 conjugated to KLH. The primary immunisation was followed by 8 boosters at monthly intervals, using standard techniques for the raising of polyclonal antibodies. Titre was established via immunohistochemistry, using rat and ovine median eminence tissue and the ability to block antibody with Peptide 1 was determined on histological sections. Specificity was tested using a range of hypothalamic peptides. […] 9, which consists of KVKEFNNI (SEQ ID NO. 21). Purification of the antibody using the peptide SEQ ID NO: 9 immobilised on a column enriches for antibody to the C-terminal epitope. The goat antibody has been used in connection with an assay based on adult rat bone marrow stem cells in culture, with α-MEMS as cell medium and manual assessments of cell numbers and morphology using time-lapse video photography over 24 h.
as §1

[4] = system: MCF 7 human breast cancer cells; experiment: IGF1-stimulated cell growth, Coulter counter; type: cell-based; conditions: IGF1 50 ng/ml, 72 hours
Protocol: Experiments were conducted to assess the effects of a range of doses of the micrin peptide fragment with 20 amino acids (SEQ ID NO: 19) on the IGF1-stimulated growth of MCF 7 human breast cancer cells. Cells were plated at 2×10^4 per well in 2 cm^2 wells in Dulbecco's Modified Eagle's Medium containing 10% foetal calf serum, antibiotics and a stabilised substitute for glutamine (Glutamax, InVitrogen, UK). After an overnight culture period, the cells were washed with fresh medium and this was replaced with medium containing IGF1 (50 ng/ml) in the presence and absence of a range of concentrations (between 0.04 and 4000 nmol) of the peptide fragment in triplicate wells, and compared to triplicate wells containing medium only (with no supplementary IGF1) as controls. The cells were incubated for 72 hours in a humidified atmosphere at 37° C. under 5% carbon dioxide/95% air. The medium was discarded, and the cell layer washed with buffered saline before being incubated with trypsin/EDTA to dislodge the cells. The cell suspension was diluted with medium to stop the tryptic action and then transferred to tubes and subjected to centrifugation. The pellet was resuspended in Isoton and samples counted with a Coulter counter.

Caenorhabditis elegans [5] = conditions: Davies & Hart, Nematology 2008; cited from earlier work
ovine pituitary cells [6] = experiment: Prolactin production by pituitary cells in vitro, RIA; type: cell-based
Protocol: Adult ewe pituitaries were collected into phosphate buffered saline (PBS) on ice. The external dura and neurohypophyseal tissue were removed and the remaining tissue was sliced thinly using tweezers and scalpel, and minced using crossed scalpel blades (<1 mm pieces). The mince was washed in 0.1% bovine serum albumen (BSA)/PBS. The tissue was allowed to settle and the liquid aspirated. The washing, settling and aspiration were repeated.
A standard cell dispersion was conducted by adding the tissue to a filtered solution of collagenase in BSA/PBS (0.02-0.03 g in 10 ml) plus Dnase, hyaluronidase, pancreatin and trypsin inhibitor and incubating in a shaking waterbath at 37° C. for 25 minutes. The resultant suspension was titurated with a pipette and returned to the shaking waterbath for 5 minutes. The suspension was titurated again and filtered through a mesh, washing with BSA/PBS. The suspension was added to a 50 ml centrifuge tube and spun at 1500 rpm for 5 minutes. The supernatant was removed and the cell pellet resuspended in 50 ml BSA/PBS.
A sample of the cell suspension (50 μl) was mixed 1:1 with trypan blue in a microcentrifuge tube and viable cells were counted on a haemocytometer, to give viable cell concentration.
The cell suspension was recentrifuged and resuspended in 3-5 ml of M199. […]

ovine pituitary cells [7] = experiment: LH secretion by pituitary cells in vitro; type: cell-based; conditions: 24 h, 0.1-10 μg/L, dose dependent, vs scrambled peptide, data not shown
Protocol: Both effects are dependent on dose across the range used, 0.1-10 μg/L, and are statistically significant. Comparison was with a control peptide having the same amino acids in a randomly scrambled sequence (data not shown)

[8] = system: compensatory renal growth; conditions: procedures as in 7c; Haylor et al 2009; cited from earlier work
[9] = system: PC3 prostate cancer cells; experiment: Tumour cell viability, Alamar Blue; type: cell-based; conditions: 48 hours; mean n = 3, SEMs < 5%; camptothecin at 3 μmol
Protocol: (§2) The effects of micrin on viability of tumour cells were determined using MCF7 breast cancer cells and PC3 prostate cancer cells. Cells were plated out to provide 2×10^4 cells in 2 cm^2 wells in Dulbecco's modified Eagles medium (DMEM) containing 10% foetal calf serum (FCS), antibiotics and a stabilised substitute for glutamine (Glutamax, Invitrogen UK). The cells were allowed to attach overnight. The medium was removed and the cells were washed several times with fresh medium, and then treated with test or control samples diluted in medium.
(§3) Test and control samples were produced according to an ion exchange method using 120 ml sheep ovarian follicular fluid as the starting material. Follicular fluid obtained by aspiration of abattoir-derived sheep ovaries was centrifuged at +4° C. and 2000 g for 10 minutes, then spun through Amicon Centriprep-30 cartridges at 1800 g to give a nominal 0-30 kD fraction. This fraction was spun through Amicon Centriprep-3 cartridges to give a nominal 3-30 kD sub-fraction. […]
(§4) Camptothecin, an inducer of apoptosis, was used as a positive control at 3 μmol. After 48 hours the medium was changed for fresh medium and the number of remaining viable cells was quantitated using Alamar Blue. The number of viable cells in the micrin and camptothecin samples were expressed as a percentage of the number of viable cells in the micrin-free control samples. […]

MCF7 breast cancer cells = experiment: Tumour cell viability, Alamar Blue; type: cell-based, human; conditions: 48 hours; mean n = 3, SEMs < 5%; camptothecin at 3 μmol
Protocol: as §2, §3, §4

[10] = system: human umbilical vascular endothelial cells (HUVECs); experiment: AngioKit angiogenesis assay, venule length; type: cell-based; conditions: FIG. 6; suramin 20 μM; micrin sample T2
Protocol: Micrin and micrin free control samples were produced using the method described in Example 7.a with 120 ml sheep follicular fluid as the source material. These were diluted in AngioKit medium and stored at 4° C. for the duration of the assay. Samples were tested as follows: • 1) untreated control—medium alone • 2) positive control—medium containing 2 ng/ml VEGF • 3) negative control—medium containing 20 μM suramin (a potent inhibitor of angiogenesis) • 4) micrin-free control • 5) micrin test material
Comparison of venule length was conducted using the ‘Angiosys’ image analysis system developed specifically for the analysis of images produced using the AngioKit. Four images were taken from predetermined positions in the well containing each specimen. The results obtained with micrin are marked T2, those with micrin-free control T1.

## LQPAHV
Caenorhabditis elegans [1]
  effect on lifespan: significantly to prolong lifespan
  increase in fecundity (number of offspring): 71%
[2]
  ascending order of anti-proliferative activity: IEPVFT (SEQ ID NO: 30)<MKPLTG (SEQ ID NO. 26)<LEPVMT (SEQ ID NO: 31)<LQPAHV (SEQ ID NO: 27)
  reduction of cell numbers: about 32%

## KVKEFNNI
Human dental pulp cells
  anti-proliferative activity: most anti-proliferative of all
Human dental pulp cells; 5 μM, over 7 days
  reduction of cell numbers: about 17%

## 1KPLTGKVKEFNNI [SEQ ID NO:1, 14 mer wherein 1 is S, D or M]
Human dental pulp cells
  anti-proliferative activity: more so

## MKPLTG
Caenorhabditis elegans [1]
  effect on lifespan: without altering lifespan
  increase in fecundity (number of offspring): 50%
[2]
  ascending order of anti-proliferative activity: IEPVFT (SEQ ID NO: 30)<MKPLTG (SEQ ID NO. 26)<LEPVMT (SEQ ID NO: 31)<LQPAHV (SEQ ID NO: 27)
Human dental pulp cells
  anti-proliferative activity: minimally anti-proliferative

## MKPLTGKVKEFNNIKGFGVI [SEQ ID NO: 19]
[3]; 24 h, due to apoptosis
  reduction in cell numbers: about 80%
[4]; 0.04 nmol peptide
  cell count compared to IGF1 alone: noticably decreases the cell count
[4]; 40 nmol peptide
  cell count compared to controls: reduces the cell count to below that in the controls
[4]; 0.04-4000 nmol, FIG. 7
  effect on IGF1-stimulated cell growth: suppresses the effect of IGF1 in a dose-dependent manner

## KLKMNGKN (SEQ ID NO: 29) to the N-terminus of IEPVFT: IEPVFT with KLKMNGKN added to its N-terminus (KLKMNGKNIEPVFT)
Caenorhabditis elegans [5]
  effect on fecundity: anti-fecundity agent

## LEPVMT
[2]
  ascending order of anti-proliferative activity: IEPVFT (SEQ ID NO: 30)<MKPLTG (SEQ ID NO. 26)<LEPVMT (SEQ ID NO: 31)<LQPAHV (SEQ ID NO: 27)

## fluorescently tagged version of the micrin peptide fragment: fluorescently tagged version of the micrin peptide fragment SEQ ID NO: 9 (MKPLTGKVKEFNNI; also: fluorescent tag, position not given here)
Caenorhabditis elegans [1]; in vivo
  tissue accumulation: accumulate preferentially in genital tissue

## MKPLTGKVKEFNNI [SEQ ID NO: 9]
[3]; 10 μg/ml of medium, 24 h, untreated control cells increased by 50%
  increase in cell number: under 20%
[3]; with goat antibody and rat hypothalamus extract
  effect of co-administration on the antibody's reduction of the negative influence: reversed by co-administration
Ovine pituitary cells [6]; Experiment 1: 1 ng/well, 24 hours, n=4, control 92.2±13.9
  prolactin level in medium: 67.1 ± 12.6 ng/mL
Ovine pituitary cells [6]; Experiment 2: 1 μg/ml, 2 hours, control 8.30±1.16, p<0.05
  prolactin level in medium: 5.18 ± 1.52 ng/mL
Ovine pituitary cells [7]; cells provided with GnRH, GHRH and TRH
  LH production: reduction in LH production
Ovine pituitary cells [7]; hypothalamic regulators omitted
  LH secretion: increase the secretion of LH
Caenorhabditis elegans [1]
  effect on lifespan: increased by about a fifth
  increase in fecundity (number of offspring): > 40%
[8]
  effect on compensatory renal growth: inhibits compensatory renal growth

## CC[C@@]1(O)C(=O)OCc2c1cc1n(c2=O)Cc2cc3ccccc3nc2-1 [Camptothecin]
[9]
  Viability (% micrin-free control) PC3 (prostate cancer): 43.9 % micrin-free control
MCF7 breast cancer cells
  Viability (% micrin-free control) MCF-7 (breast cancer): 56.2 % micrin-free control

## Cc1ccc(C(=O)Nc2ccc(S(=O)(=O)O)c3cc(S(=O)(=O)O)cc(S(=O)(=O)O)c23)cc1NC(=O)c1cccc(NC(=O)Nc2cccc(C(=O)Nc3cc(C(=O)Nc4ccc(S(=O)(=O)O)c5cc(S(=O)(=O)O)cc(S(=O)(=O)O)c45)ccc3C)c2)c1 [Suramin, suramin]
[10]
  HUVEC venule length: statistically significant decrease in HUVEC venule length

## IEPVFT
Caenorhabditis elegans [1]
  effect on lifespan: without having a significant effect on lifespan
  increase in fecundity (number of offspring): 79%
[2]
  ascending order of anti-proliferative activity: IEPVFT (SEQ ID NO: 30)<MKPLTG (SEQ ID NO. 26)<LEPVMT (SEQ ID NO: 31)<LQPAHV (SEQ ID NO: 27)
